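Step 1: Grow cells in 96-well plates. Step 2: Expose to compound for 48 hours at 5 concentrations. Step 3: Interpolate endpoints linearly; if unreached, use highest concentration. At the GI50, growth is halved. The concentration for full growth arrest is given as TGI.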
Assays:
Assay in all cases: DTP human tumour cell line panel, 48 h
[1] = system: PC-3 prostate
[2] = system: MDA-MB-231 breast
[3] = system: OVCAR-8 ovarian
[4] = system: A498 renal
[5] = system: HCT-15 colon
[6] = system: EKVX NSCLC
[7] = system: DU-145 prostate
[8] = system: NCI/ADR-RES ovarian
[9] = system: MALME-3M melanoma
[10] = system: SK-MEL-28 melanoma

| SMILES | GI50 [1] [µM] | TGI [1] [µM] | GI50 [2] [µM] | TGI [2] [µM] | GI50 [3] [µM] | TGI [3] [µM] | GI50 [4] [µM] | TGI [4] [µM] | GI50 [5] [µM] | TGI [5] [µM] | GI50 [6] [µM] | TGI [6] [µM] | GI50 [7] [µM] | TGI [7] [µM] | GI50 [8] [µM] | TGI [8] [µM] | GI50 [9] [µM] | TGI [9] [µM] | GI50 [10] [µM] | TGI [10] [µM] |
| --- | --- | --- | --- | --- | --- | --- | --- | --- | --- | --- | --- | --- | --- | --- | --- | --- | --- | --- | --- | --- |
| CCN(CC)CCCNCc1cc(-c2ccccc2)nc2cc(Cl)ccc12 | 4.37 | 18.4 | 1.45 | 4.24 | 5.81 | 18.8 | 2.36 | 6.14 | 3.1 | 10.2 | 7.85 | 24.3 | 11.7 | 24.5 | 5 | 19.7 | 1.63 | 3.49 | 1.72 | 3.11 |
| Cc1nn(C)c2ncnc(N/N=C/c3cccc(O)c3O)c12 | 0.545 | > 100 | 0.486 | 39.5 | 0.413 | > 100 | 2.97 | 16.3 | 0.225 | > 100 | 2.78 | > 100 | 0.558 | > 100 | 0.336 | > 55.8 | 0.52 | 4.7 | 0.455 | > 100 |
| CC(=O)c1c[nH]c2ccc(-c3ccnc(Nc4ccc(NC(=O)C5CCCC5)c(CN5CCOCC5)c4)n3)cc12 | 0.0325 | 1.05 | 0.0315 | 0.294 | 0.0362 | > 100 | 0.0204 | 0.0558 | 0.0558 | 0.758 | 0.0382 | 0.457 | 0.0362 | 2.38 | 0.306 | 2.96 | 0.0431 | 0.151 | 0.0404 | 0.27 |
| COc1cc(C2c3cc4c(cc3OC(O)C2C)OCO4)cc(OC)c1OC (stereo unspecified) | – | > 100 | – | 17.4 | – | > 20.5 | – | 50.2 | – | > 100 | – | > 100 | – | > 100 | – | 0.504 | – | 73.2 | – | > 100 |
| CC1=C(CO)C(=O)O[C@@H]([C@@H](C)[C@H]2CC[C@H]3[C@@H]4C[C@H]5O[C@]56[C@@H](O)C=CC(=O)[C@]6(C)[C@H]4CC[C@]23C)C1 | 1.03 | 2.46 | 0.491 | 1.77 | – | 1.76 | 0.408 | 1.53 | – | 1.94 | 0.434 | 1.45 | 0.294 | 0.91 | 0.821 | 11.2 | – | 0.826 | – | 2.29 |
| CCCCCCCCCCCNC=O | – | 66.9 | – | > 100 | – | > 100 | – | 86.7 | – | 71.8 | – | > 100 | – | > 100 | – | 96.6 | – | > 100 | – | > 100 |
| Cc1ccc(S(=O)(=O)n2cc([C@@]3(O)C[C@H](CSC#N)OC3=O)c3ccccc32)cc1 | 17.8 | 50.4 | 8.44 | 22.4 | 10.2 | 22.5 | 14.7 | 46.5 | 13.6 | 71.2 | > 100 | > 100 | 4.39 | 15.3 | 13.5 | 38.8 | 12.1 | 35.2 | 14 | 27.7 |
| C=C(C(=O)OC)[C@@H]1CC2OC1C(=O)C(C)CCC/C(C)=C/CC[C@@]2(C)O (stereo partly specified) | 36.8 | > 100 | 28.3 | 68 | 28.1 | 93.6 | 37.2 | 96.8 | 29.1 | > 100 | 63.2 | > 100 | 15 | 28.2 | 28.8 | 86.4 | 10.9 | 31.1 | 25.5 | 77.3 |
| O=c1cc(-c2ccccc2)[nH]c2c1CCCC2 | 3.18 | > 100 | 6.67 | > 100 | 4.58 | > 100 | 1.44 | 7.83 | 2.01 | > 100 | 5.6 | > 100 | 2.47 | 8.35 | 1.69 | 5.73 | 3.48 | > 100 | > 100 | > 100 |
| COc1ccc(CSC2=C(C#N)C(=O)NC3(CCCCC3)S2)cc1 | – | > 100 | – | > 100 | – | > 100 | – | > 100 | – | > 100 | – | > 100 | – | > 100 | – | > 100 | – | > 100 | – | > 100 |
| COc1c(OC)c(OC)c2c(=O)cc(-c3ccc(OC(C)C)cc3)oc2c1OC | – | > 100 | – | > 54.2 | – | 49.5 | – | 36.9 | – | > 54.8 | – | > 54.9 | – | > 50.8 | – | 61.6 | – | > 50.3 | – | > 55.4 |
| COc1ccc2nc(C)cc(Sc3nc4ccccc4s3)c2c1 | 0.288 | 3 | 1.05 | 5.93 | 2.66 | 10.9 | 1.37 | 4.87 | 0.953 | 3.73 | 1.61 | 8 | 2.2 | 7.55 | 1.43 | 4.42 | 0.426 | 11.9 | 2.45 | 9.89 |
| O=C1C=CC(=O)c2c1ccc1c3ccccc3n(Cc3ccccc3)c21 | – | 53.3 | – | 43.1 | – | > 100 | – | 44.3 | – | 46.2 | – | > 100 | – | > 100 | – | > 68.4 | – | 30.8 | – | 54 |
| CN(C)CCN1C(=O)c2cccc3c(/C=C/CN4C(=O)c5cccc6cccc(c56)C4=O)ccc(c23)C1=O | > 100 | > 100 | 35.9 | > 100 | 4.21 | > 100 | 34.1 | > 100 | > 100 | > 100 | > 100 | > 100 | > 100 | > 100 | > 100 | > 100 | 4.06 | 30.5 | 0.766 | 4.71 |
| OCCCCC#Cc1ccccc1C#Cc1cccnc1 | 36.3 | > 100 | 22.4 | 69.7 | 30.7 | > 100 | 28.5 | 88.4 | 21.9 | 74.1 | 41.7 | > 100 | 47.3 | > 100 | 28.9 | > 100 | 37.8 | 92.2 | 23.7 | > 100 |

— PubChem BioAssay (NCI)
